From patent publication US4746349A, “Method and compositions for suppressing the nitrification of ammonium in plant growth medium” (American Cyanamid Company, priority 1986, dated 1988)

Legend:
[1] = system: corn (Dekalb T2000, B73×LH 38); experiment: Field evaluation: corn ear leaf tissue nitrogen, silt loam plots; assay type: in vivo; conditions: 1.1 l/ha; NH3 168 kg N/ha; ear leaf at silking
Description: (§1) Field Evaluation: Field evaluations are based on the N content of corn leaf tissue and grain yield utilizing two soil types. Replicate (4X) field plots are established at two different locations, one having (I) silt loam soil and one (II) with sandy loam soil. These soils had been previously cropped to non-fertilized corn to reduce the level of residual N. Maduramicin monoammonium salt is applied (0.25, 0.125, 0.07 ppm) with NH3 (84 or 168 kg N/ha) through a "downstream" by an injection system into silt loam plots. Nitrapyrin (0.25 ppm=0.56 kg a.i./ha), nitrogen checks, benzyl alcohol (1.16L/ha) (BA) and a O nitrogen check are included for comparison. Individual replicate plot sizes are 3.04M×22.8M (4, 76-cm corn rows×22.8M long) Anhydrous ammonia are injected on 76-cm centers.
(§2) Urea, treated or non-treated with Maduramicin monoammonium salt is broadcast on the surface of sandy loam plots. Plots are then planted with corn the day following treatment. Dekalb T2000 is planted 10 May on silt loam plots and Pioneer 3352 is planted 11 May in sandy loam plots.
(§3) Corn ear leaf tissues collected at silking on silt loam plots or 60 days post silking (on silt loam and sandy loam plots) are collected from each plot and assayed for total N (AOAC procedures). Grain yields are determined by harvesting the two center rows×15.2 m of each plot.

corn (Pioneer 3352) = experiment: Field evaluation: yield of corn, sandy loam plots; assay type: in vivo; conditions: sandy loam; N 168 kg/ha as NH3; chemical 1.2 l/ha
Description: as §1
Plots are then planted with corn the day following treatment. Dekalb T2000 is planted 10 May on silt loam plots and Pioneer 3352 is planted 11 May in sandy loam plots.
as §3

Nitrosomonas spp. = experiment: Nitrification of ammonium in soil incubated at 25° C. (ammonium recovery, nitrate accumulation); conditions: 5%, soil 25° C.; for Concentration of nitrate nitrogen / Recovery of Ammonium Nitrogen: 200 ppm N
Procedure: In these evaluations, one hundred grams (100 g) of oven dry, silt loam field soil with low residual nitrogen is added to a 6×12 cm screw-capped glass jar for each sampling date to provide an optimum environment for nitrification.
Two replicates of each treatment-sampling date are established. The soil is adjusted to 50% water saturation with an aqueous solution of ammonium sulfate at 200 ppm N and the chemical to be tested as a nitrification inhibitor at rates of from 0.10 to 0.50 ppm.
Incubation is at either 25° C. or 38° C. for 0, 1, 2, 4, 7, 9, 12, 16 or 20 weeks. Inorganic N is extracted by adding 2M KCl (10:1 v/w) and shaking for one hour, allowing settling for fifteen minutes. A 10 ml aliquot from the supernatant is assayed for ammonium, nitrite and nitrate by standard steam distillation methods (AOAC, pp. 653-655). Nitrapyrin (0.5 ppm) is used as a nitrification inhibitor for comparison. Benzyl alcohol, acetone, and a non-N amended soil are run as controls and as a check on mineralization.
Nitrification: Ammonium recovery and nitrate accumulation are indicative of nitrification, and data obtained with test compounds are reported in Tables I and II.

Nitrobacter spp. = experiment: Nitrite nitrogen in ammonium amended soil incubated at 25° C.; conditions: 5%, soil 25° C., 200 ppm N
Procedure: Determination of nitrite nitrogen and nitrate nitrogen in soil prepared in Example 1 above, which is amended with 200 ppm of nitrogen as aqueous ammonium sulfate, […], is determined using the nitrite and nitrate analysis of the American Organization of Analytical Chemists (AOAC pp. 653-655).

[2] = system: corn (Dekalb T2000, B73×LH 38); experiment: Field evaluation: yield of corn, silt loam location; assay type: in vivo; conditions: N 168 kg/ha, chemical 1.2 l/ha
Description: as §1, §2, §3

`OCc1ccccc1` [Benzyl Alcohol] was tested, and the “Corn Leaf Tissue Analysis (total N)” value [1] was 271 10^2 ug/g, the “AVERAGE YIELD 4-REPLICATES” value (corn (Pioneer 3352)) was 165.3 HECTOLITERS/HECTARE and the “Effect on nitrification, in words” value (Nitrosomonas spp.) was “markedly inhibited nitrification throughout the incubation period”. For the same compound, the “Concentration of nitrate nitrogen” value (Nitrosomonas spp.; week 0) was 19 PPM, the “Recovery of Ammonium Nitrogen” value (Nitrosomonas spp.; week 0) was 194 PPM and the “Concentration of nitrate nitrogen” value (Nitrosomonas spp.; week 1) was 21 PPM. The “Recovery of Ammonium Nitrogen” value (Nitrosomonas spp.; week 1) was 163 PPM, the “Concentration of nitrate nitrogen” value (Nitrosomonas spp.; week 2) was 16 PPM and the “Recovery of Ammonium Nitrogen” value (Nitrosomonas spp.; week 2) was 163 PPM. For the same compound, the “Concentration of nitrate nitrogen” value (Nitrosomonas spp.; week 4) was 20 PPM, the “Recovery of Ammonium Nitrogen” value (Nitrosomonas spp.; week 4) was 168 PPM and the “Concentration of nitrate nitrogen” value (Nitrosomonas spp.; week 7) was 15 PPM. For the same compound, the “Recovery of Ammonium Nitrogen” value (Nitrosomonas spp.; week 7) was 164 PPM, the “Concentration of nitrate nitrogen” value (Nitrosomonas spp.; week 9) was 99 PPM and the “Recovery of Ammonium Nitrogen” value (Nitrosomonas spp.; week 9) was 41 PPM. The “Concentration of nitrate nitrogen” value (Nitrosomonas spp.; week 12) was 19 PPM, the “Recovery of Ammonium Nitrogen” value (Nitrosomonas spp.; week 12) was 163 PPM and the “Concentration of nitrate nitrogen” value (Nitrosomonas spp.; week 16) was 27 PPM. The “Recovery of Ammonium Nitrogen” value (Nitrosomonas spp.; week 16) was 169 PPM, the “Concentration of nitrate nitrogen” value (Nitrosomonas spp.; week 20) was 20 PPM and the “Recovery of Ammonium Nitrogen” value (Nitrosomonas spp.; week 20) was 139 PPM. For the same compound, the “Concentration of nitrite nitrogen” value (Nitrobacter spp.; week 0) was 6 ppm, the “Concentration of nitrite nitrogen” value (Nitrobacter spp.; week 1) was 5 ppm and the “Concentration of nitrite nitrogen” value (Nitrobacter spp.; week 2) was 5 ppm. The “Concentration of nitrite nitrogen” value (Nitrobacter spp.; week 4) was 6 ppm, the “Concentration of nitrite nitrogen” value (Nitrobacter spp.; week 7) was 3 ppm and the “Concentration of nitrite nitrogen” value (Nitrobacter spp.; week 9) was -1 ppm. For the same compound, the “Concentration of nitrite nitrogen” value (Nitrobacter spp.; week 12) was 5 ppm, the “Concentration of nitrite nitrogen” value (Nitrobacter spp.; week 16) was 1 ppm and the “Concentration of nitrite nitrogen” value (Nitrobacter spp.; week 20) was 27 ppm. The “AVERAGE YIELD 4-REPLICATES” value [2] was 140.9 HECTOLITERS/HECTARE.
